The source of these data is US8202904B2, “α-cyano-4-fluoro-3-phenoxybenzyl meta-halo pyrethrate, a process for preparing the same and the uses thereof” (East China Normal University, priority 2007, dated 2012).

Each structure is given as a SMILES string. In brackets after ≈: the same amount, converted by molar mass. Where two headings read alike, the source gives them in different places.

Series [1] deals with Culex pipiens pallens fourth instar wiggler. Briefly: Killing effect on wiggler, WHO immersing method, LC50. The format is in vivo. The settings on record: for LC50: Culex pipiens pallens fourth instar wiggler, immersing method, mortality after 24 hours, 26±1° C.; for Relative toxicity: from wiggler LC50, Cypermethrin = 100. As for the experimental part:
The following pyrethrates were tested as representatives according to the method recommended by the World Health Organization (WHO) (Zongbing ZHANG, the assay of toxicity of insecticides, the Science Press, 1988), the commonly used testing breed, Culex pipiens pallens fourth instar wiggler is used as a subject for biological assay, test temperature: 26±1° C., humidity: 70±10%; immersing method: a solution of a certain amount the compound to be tested in acetone was mixed evenly with pure water in the gradually decreasing concentration of 500, 250, 100, 50, 25, 12.5, 6.25, 3.125, 1, 0.5, 0.25, 0.1, 0.05, 0.025, 0.01, 0.005, 0.0025, 0.0001 mg/L, and the mortality of wiggler after 24 hours was calculated and LC50 was calculated to preliminarily evaluate the insecticidal activity. The results were shown in Table I. Compound 1-5 are representative examples of the compound of formula (I) of the present invention: the compounds involved in preparation Example 1-5 were prepared;
At the same time, their relative toxicities were compared with those of Cypermethrin, and Deltamethrin.

In another series the test system is Mythimna separata. Briefly: Killing effect on Mythimna separata, dipped corn leaves fed to larvae. The settings on record: after 48 hours, read-out: The average mortality. The format is in vivo. As for the experimental part:
The killing effect on Mythimna separata was tested using Compounds 2 and 3, which are representative examples of the compound of formula (I) of the present invention, Compound 9, polyfluorobenzyl meta-halo pyrethrate, which has the highest insecticidal activity to Mythimna separata as a control example.
Mythimna separata: test temperature: 26±1° C., humidity: 70±10%; the corn leaves was immersed, and then were taken out after they were dipped in a liquor in dimethyl sulfoxide for 5 seconds. The liquor was dried in the shade and the corn leaves were cut away to feed larvae at the beginning of the third instar. Each treatment was done in triplicate. The number of killed insects was counted after 48 hours to calculate the mortality.

The subject of the next series is Aphis medicaginis kock. The experiment in a line: Killing effect on aphids, immersion. The settings on record: Aphis medicaginis, aphids, after 24 hours, read-out: The average mortality. The format is in vivo. As for the experimental part: The killing effect on aphids was tested using Compound 2 and 3, which are representative examples of the compound of formula (I) of the present invention, Compound 9 as a control example. Aphis medicaginis kock; test temperature: 26±1° C., humidity: 70±10%; test method: immersion; adult insects together with bean sprouts were immersed in a liquor in dimethyl sulfoxide for 5 seconds, after which the bean sprouts were heeled in a solid support. Each treatment was done in triplicate. The number of the killed insects was checked after 24 hours to calculate the mortality.

Series [2] has as its system Tetrangychus cinnabarinus. The experiment in a line: Killing effect on Tetrangychus cinnabarinus, immersion. It counts as in vivo. The settings on record: after 24 hours. As for the experimental part:
The killing effect on acarids was tested using Compound 2 and 3, which are representative examples of the compound of formula (I) of the present invention, Compound 9 as a control example. Tetrangychus cinnabarinus, test temperature: 26±1° C. humidity: 70±10%; test method: immersion; adult insects together with horsebean leaves were immersed in a liquor in dimethyl sulfoxide for 5 seconds, after which the leaves were inserted into a small bottle. Each treatment was done in triplicate. The number of the killed insects was checked after 24 hours to calculate the mortality.

The subject of the next series is Musca domestica. The experiment in a line: Striking down effect on Musca domestica, liquid film contact method. The format is in vivo. Also noted: unit not given here. Conditions: Musca domestica adults, film from 1 ml of 0.1% liquor in acetone in 500 ml conical flask. Here is the method:
The striking down effect on Musca domestica was tested using Compounds 2 and 3, which are representative examples of the compound of formula (I) of the present invention, Compound 9 as a control example. Musca domestica, an in-house cultured sensitive strain, the adult insects in eclosion for 3-5 days were used, and the male and female insects are half and half. Test temperature: 26±1° C., humidity: 70±10%, test method: liquid film contact method. 1 ml of 0.1% liquor in acetone was evenly coated on a 500 ml conical flask to form a film. After the film was dry, 20˜25 adult insects were put into the flask, and the striking down time and striking down number were observed, and each treatment was done in triplicate.

Another series deals with Blattela germanica. The experiment in a line: Striking down effect on cockroaches, liquid film contact method. It counts as in vivo. Also noted: unit not given here. The settings on record: Blattela germanica male adults, film at 54 mg/m^2, 22±1° C. As for the experimental part: The striking down effect on Blattela germanica was tested using Compound 2 and 3, which are representative examples of the compound of formula (I) of the present invention, Compound 9 as a control example. Blattela germanica, an in-house cultured sensitive strain, male adult insects were used. Test temperature: 22±1° C., test method: liquid film contact method. A liquor in acetone was evenly coated at the amount of 54 mg/m^2 on the inner wall of a wild mouth bottle to form a film. After the film was dry, 10 adult insects were put into each bottle, and the striking down time and striking down number were observed, and each treatment was done in triplicate.

The nature of series [3]: Stability test, ultraviolet lamp irradiation, gas chromatography analysis. The format is physicochemical. The settings on record: 0.15 mmol in 50 ml cyclohexane, 500 W ultraviolet lamp, 30 min. As for the experimental part: 0.15 mmol of the compound of Preparation Example 2 (cis-α-cyano-3-phenoxy-4-fluoro-benzyl-2,2-dimethyl-3-(2-chlorovinyl)cyclopropane carboxylate) and 0.15 mmol of the corresponding dichloride compound (cis-α-cyano-3-phenoxy-4-fluoro-benzyl-2,2-dimethyl-3-(2,2-dichlorovinyl)cyclopropane carboxylate) were added to two vessels separately, to which 50 ml of cyclohexane were added separately. They were irradiated by a 500 W ultraviolet lamp for 30 min respectively. Then to each of the vessels were added 0.15 mmol of n-hexane as an internal standard for gas chromatography analysis. […] The photodegradation rate of the former is 1.9 times of that of the latter. That is to say, if the same amounts were used, the residue of the former in the environment is lower than that of the latter.

As for `CC1(C)C(C=CCl)C1C(=O)OC(C#N)c1ccc(F)c(Oc2ccccc2)c1` (mixture of isomers) [Compound 1, cis/trans-α-cyano-3-phenoxy-4-fluoro-benzyl-2,2-dimethyl-3-(E/Z-2-chlorovinyl)cyclopropane carboxylate], in series [1], the LC50 worked out at 0.00055 µg/mL and the Relative toxicity worked out at 1927.

`CC1(C)[C@@H](C=CCl)[C@@H]1C(=O)OC(C#N)c1ccc(F)c(Oc2ccccc2)c1` (relative stereo) [Compound 3, Trans-α-cyano-3-phenoxy-4-fluoro-benzyl-2,2-dimethyl-3-(2-chlorovinyl)cyclopropane carboxylate]: in series [1] (read-out: LC50), the LC50 worked out at 0.0055 µg/mL (≈ 0.0138 µM). The Relative toxicity in series [1] was determined as 193. Also, the mortality at 0.5 ppm with Mythimna separata (0.5 ppm) and in the series on Aphis medicaginis kock (0.5 ppm) was 0% each time. For the same compound, the mortality at 1 ppm turned out to be 0% with Mythimna separata (1 ppm) and 66.3% in the series with Aphis medicaginis kock (1 ppm). The values for the mortality at 5 ppm with Mythimna separata (5 ppm) and with Aphis medicaginis kock (5 ppm) were 100% and 83.7%, respectively. Moreover, the mortality at 50 ppm in the series with Mythimna separata (50 ppm) and with Aphis medicaginis kock (50 ppm) was 100% throughout. Moreover, the mortality at 500 ppm with Mythimna separata (500 ppm) and in the series on Aphis medicaginis kock (500 ppm) was 100% throughout. For the same compound, the The average mortality in series [2] (1 mg/L) was found to be 0%; in series [2] (5 mg/L) it was 0%; in series [2] (50 mg/L) it was 7.8%; in series [2] (500 mg/L), 100%. Further, the figures for the KT50 with Musca domestica and in the series on Blattela germanica were 5.80 and 8.14, respectively.

For `CC1(C)[C@H](/C=C/F)[C@@H]1C(=O)OC(C#N)c1ccc(F)c(Oc2ccccc2)c1` (relative stereo) [Compound 5, cis-α-cyano-3-phenoxy-4-fluoro-benzyl-2,2-dimethyl-3-(E-2-fluorovinyl)cyclopropane carboxylate], the LC50 in series [1] (read-out: LC50) amounted to 0.00061 µg/mL (≈ 0.00159 µM). In series [1], the Relative toxicity was determined as 1740.

In series [1], `CC1(C)[C@H](/C=C/Cl)[C@@H]1C(=O)OCc1c(F)c(F)cc(F)c1F` (relative stereo) [Compound 6, cis-2,3,5,6-tetrafluoro-4-benzyl-3-(E-2-chlorovinyl)-2,2-dimethylcyclopropane carboxylate] gave an LC50 of 0.4810 µg/mL (≈ 1.43 µM) and a Relative toxicity of 2.

In series [1], `Cc1c(F)c(F)c(COC(=O)[C@H]2[C@@H](/C=C/Cl)C2(C)C)c(F)c1F` (relative stereo) [Compound 7, cis-2,3,5,6-tetrafluoro-4-methyl benzyl-3-(E-2-chlorovinyl)-2,2-dimethylcyclopropane carboxylate] had an LC50 of 0.0741 µg/mL (≈ 0.211 µM) and a Relative toxicity of 14.

For `CC1(C)[C@H](/C=C/Cl)[C@@H]1C(=O)OCc1c(F)c(F)c(F)c(F)c1F` (relative stereo) [Compound 8, cis-pentafluorobenzyl-3-(E-2-chlorovinyl)-2,2-dimethyl cyclopropane carboxylate], in series [1], the LC50 came to 0.0801 µg/mL (≈ 0.226 µM) and the Relative toxicity was 13.

`Cc1c(F)c(F)c(COC(=O)[C@H]2[C@H](C=CCl)C2(C)C)c(F)c1F` (relative stereo) [Compound 10, trans-2,3,5,6-tetrafluoro-4-methylbenzyl-3-(2-chlorovinyl)-2,2-dimethylcyclopropane carboxylate]: in series [1] (read-out: LC50), the LC50 came out at 0.0578 µg/mL (≈ 0.165 µM). This compound also registered a Relative toxicity in series [1] of 18.

For `CC1(C)[C@@H](C=CCl)[C@@H]1C(=O)OCc1c(F)c(F)c(F)c(F)c1F` (relative stereo) [Compound 11, trans-pentafluorobenzyl-3-(2-chlorovinyl)-2,2-dimethyl cyclopropane carboxylate], in series [1], the LC50 was 0.2041 µg/mL (≈ 0.575 µM) and the Relative toxicity was found to be 5.

Turning to `CC1(C)[C@H](C=CBr)[C@@H]1C(=O)OC(C#N)c1cccc(Oc2ccccc2)c1` (relative stereo) [Compound 12, cis-α-cyano-3-phenoxybenzyl-2,2-dimethyl-3-(2-bromovinyl)cyclopropane carboxylate], the LC50 in series [1] (read-out: LC50) stood at 0.0108 µg/mL (≈ 0.0253 µM). Besides, the Relative toxicity in series [1] came to 98.

Regarding `CC1(C)[C@@H](C=CCl)[C@@H]1C(=O)OC(C#N)c1cccc(Oc2ccccc2)c1` (relative stereo) [Compound 13, trans-α-cyano-3-phenoxybenzyl-2,2-dimethyl-3-(2-chlorovinyl)cyclopropane carboxylate], the LC50 in series [1] (read-out: LC50) stood at 0.0527 µg/mL (≈ 0.138 µM). In series [1], this compound had a Relative toxicity of 20.

In the case of `CC1(C)[C@H](C=C(Cl)Cl)[C@@H]1C(=O)OC(C#N)c1ccc(F)c(Oc2ccccc2)c1` (relative stereo) [corresponding dichloride compound, cis-α-cyano-3-phenoxy-4-fluoro-benzyl-2,2-dimethyl-3-(2,2-dichlorovinyl)cyclopropane carboxylate, reference compound], the degraded by light in series [3] was found to be 14%.

Turning to `CC1(C)[C@H](C=CBr)[C@H]1C(=O)OC(C#N)c1ccc(F)c(Oc2ccccc2)c1` (stereo partly drawn) [Compound 4, (1R)-Trans-α-cyano-3-phenoxy-4-fluoro-benzyl-2,2-dimethyl-3-(2-bromovinyl)cyclopropane carboxylate], the LC50 in series [1] (read-out: LC50) came to 0.0027 µg/mL (≈ 0.00608 µM). This compound gave a Relative toxicity in series [1] of 393.

In the case of `CC1(C)C(C=C(Cl)Cl)C1C(=O)OC(C#N)c1cccc(Oc2ccccc2)c1` (stereo not shown) [Cypermethrin], the LC50 in series [1] (read-out: LC50) was determined as 0.0106 µg/mL (≈ 0.0255 µM). In addition, the Relative toxicity in series [1] is recorded as 100.

Turning to `CC1(C)[C@H](C(=O)O[C@H](C#N)c2cccc(Oc3ccccc3)c2)[C@@H]1C=C(Br)Br` [Deltamethrin], the LC50 in series [1] (read-out: LC50) stood at 0.0012 µg/mL (≈ 0.00238 µM). In series [1], the Relative toxicity is given as 883.
